System: MV-4-11 cells
Assay: Gene expression microarray analysis (Affymetrix PrimeView) and GSEA
Assay type: cell-based, human
Design: RFU PODN (11730768_x_at) / Fold change /veh PODN (11730768_x_at) / RFU LINC00158 (11744669_a_at) / Fold change /veh LINC00158 (11744669_a_at) / RFU DUSP10 (11751237_a_at) / Fold change /veh DUSP10 (11751237_a_at) / RFU ID3 (11757404_x_at) / Fold change /veh ID3 (11757404_x_at) / RFU PLEKHG5 (11737974_s_at) / Fold change /veh PLEKHG5 (11737974_s_at) / RFU LRRC4B (11730491_at) / Fold change /veh LRRC4B (11730491_at) / RFU GIMAP4 (11747438_a_at) / Fold change /veh GIMAP4 (11747438_a_at) / RFU KRT8 (11758183_x_at) / Fold change /veh KRT8 (11758183_x_at) / RFU CNN1 (11734310_a_at) / Fold change /veh CNN1 (11734310_a_at) / RFU VPS37D (11726825_at) / Fold change /veh VPS37D (11726825_at) / RFU C10orf10 (11716522_x_at) / Fold change /veh C10orf10 (11716522_x_at) / RFU KIR2DL2 /// KIR2DL4 /// KIR2DL5A /// KIR2DL5B /// KIR2DS1 /// KIR2DS2 /// KIR2DS3 /// KIR2DS4 /// KIR3DL3 /// KIR3DL3 /// KIR3DS1 (11738374_at) / Fold change /veh KIR2DL2 /// KIR2DL4 /// KIR2DL5A /// KIR2DL5B /// KIR2DS1 /// KIR2DS2 /// KIR2DS3 /// KIR2DS4 /// KIR3DL3 /// KIR3DL3 /// KIR3DS1 (11738374_at) / RFU C1QL1 (11718748_at) / Fold change /veh C1QL1 (11718748_at) / RFU TMPRSS4 (11747572_a_at) / Fold change /veh TMPRSS4 (11747572_a_at) / RFU HAMP (11756126_x_at) / Fold change /veh HAMP (11756126_x_at) / RFU RNFT2 (11725882_a_at) / Fold change /veh RNFT2 (11725882_a_at) / RFU NR4A2 (11747474_a_at) / Fold change /veh NR4A2 (11747474_a_at) / RFU ABCC12 (11746883_a_at) / Fold change /veh ABCC12 (11746883_a_at) / RFU TMEM136 (11760407_x_at) / Fold change /veh TMEM136 (11760407_x_at) / RFU CLDN22 /// WWC2 (11732394_at) / Fold change /veh CLDN22 /// WWC2 (11732394_at) / RFU HLA-DPB1 (11760878_x_at) / Fold change /veh HLA-DPB1 (11760878_x_at) / RFU SPINT1 (11716480_a_at) / Fold change /veh SPINT1 (11716480_a_at) / RFU GAP43 (11754022_s_at) / Fold change /veh GAP43 (11754022_s_at) / RFU A4GNT (11735810_at) / Fold change /veh A4GNT (11735810_at) / RFU PRB3 (11715151_x_at) / Fold change /veh PRB3 (11715151_x_at) / RFU TUBB4B (11761932_at) / Fold change /veh TUBB4B (11761932_at) / RFU CAPN14 (11732068_a_at) / Fold change /veh CAPN14 (11732068_a_at) / RFU TMCC2 (11721928_a_at) / Fold change /veh TMCC2 (11721928_a_at) / RFU IRGQ (11745062_a_at) / Fold change /veh IRGQ (11745062_a_at) / RFU FAM174B (11720279_a_at) / Fold change /veh FAM174B (11720279_a_at) / RFU TMPRSS4 (11748680_a_at) / Fold change /veh TMPRSS4 (11748680_a_at) / RFU FAM212B (11763350_a_at) / Fold change /veh FAM212B (11763350_a_at) / RFU PLEKHG5 (11743358_a_at) / Fold change /veh PLEKHG5 (11743358_a_at) / RFU ZSCAN30 (11745921_a_at) / Fold change /veh ZSCAN30 (11745921_a_at) / RFU CMKLR1 (11741424_a_at) / Fold change /veh CMKLR1 (11741424_a_at) / RFU LOC101060620 /// MAPK8IP1 (11723275_at) / Fold change /veh LOC101060620 /// MAPK8IP1 (11723275_at) / RFU SPTSSB (11747773_x_at) / Fold change /veh SPTSSB (11747773_x_at) / RFU PRSS12 (11739890_at) / Fold change /veh PRSS12 (11739890_at) / RFU BIN1 (11741810_x_at) / Fold change /veh BIN1 (11741810_x_at) / RFU WNT11 (11732464_a_at) / Fold change /veh WNT11 (11732464_a_at) / RFU C10orf10 (11716521_a_at) / Fold change /veh C10orf10 (11716521_a_at) / RFU C5orf56 (11738089_at) / Fold change /veh C5orf56 (11738089_at) / RFU CYB561 (11721691_x_at) / Fold change /veh CYB561 (11721691_x_at) / RFU ANKRD19P (11752326_a_at) / Fold change /veh ANKRD19P (11752326_a_at) / RFU OR2T12 /// OR2T33 /// OR2T8 (11738714_s_at) / Fold change /veh OR2T12 /// OR2T33 /// OR2T8 (11738714_s_at) / RFU VCAN (11748164_a_at) / Fold change /veh VCAN (11748164_a_at) / RFU JSRP1 (11732532_at) / Fold change /veh JSRP1 (11732532_at) / RFU KRTAP10-11 (11738290_x_at) / Fold change /veh KRTAP10-11 (11738290_x_at) / RFU MYO3A (11730013_a_at) / Fold change /veh MYO3A (11730013_a_at) / RFU EBF3 (11725865_a_at) / Fold change /veh EBF3 (11725865_a_at) / RFU CAMK2N1 (11719241_x_at) / Fold change /veh CAMK2N1 (11719241_x_at) / RFU C5orf56 (11738088_a_at) / Fold change /veh C5orf56 (11738088_a_at) / RFU OLFML3 (11715873_a_at) / Fold change /veh OLFML3 (11715873_a_at) / RFU LOC100653217 /// NTM (11731650_a_at) / Fold change /veh LOC100653217 /// NTM (11731650_a_at) / RFU MAPK11 (11762145_a_at) / Fold change /veh MAPK11 (11762145_a_at) / RFU FIZ1 (11724087_x_at) / Fold change /veh FIZ1 (11724087_x_at) / RFU OASL (11726364_x_at) / Fold change /veh OASL (11726364_x_at) / RFU SOX15 (11748057_x_at) / Fold change /veh SOX15 (11748057_x_at) / RFU CD79A (11719716_a_at) / Fold change /veh CD79A (11719716_a_at) / RFU HIST1H1D (11736915_at) / Fold change /veh HIST1H1D (11736915_at) / RFU CASKIN2 (11723855_a_at) / Fold change /veh CASKIN2 (11723855_a_at) / RFU LOC730098 (11760151_x_at) / Fold change /veh LOC730098 (11760151_x_at) / RFU OR4N2 (11742367_at) / Fold change /veh OR4N2 (11742367_at) / RFU PRRT2 (11749266_a_at) / Fold change /veh PRRT2 (11749266_a_at) / RFU SNX32 (11753110_a_at) / Fold change /veh SNX32 (11753110_a_at) / RFU CDHR5 (11726645_a_at) / Fold change /veh CDHR5 (11726645_a_at) / RFU RCAN1 (11760418_a_at) / Fold change /veh RCAN1 (11760418_a_at) / RFU FAM167A (11723789_a_at) / Fold change /veh FAM167A (11723789_a_at) / RFU FAM26E (11764081_at) / Fold change /veh FAM26E (11764081_at) / RFU ISYNA1 (11749810_s_at) / Fold change /veh ISYNA1 (11749810_s_at) / RFU ACY1 (11761880_at) / Fold change /veh ACY1 (11761880_at) / RFU 11764098_at / Fold change /veh 11764098_at / RFU SAMD14 (11745864_x_at) / Fold change /veh SAMD14 (11745864_x_at) / RFU NPB (11741838_a_at) / Fold change /veh NPB (11741838_a_at) / RFU TMPRSS6 (11731388_a_at) / Fold change /veh TMPRSS6 (11731388_a_at) / RFU KRTAP10-2 (11738614_at) / Fold change /veh KRTAP10-2 (11738614_at) / RFU ARHGAP8 /// PRR5-ARHGAP8 (11727945_x_at) / Fold change /veh ARHGAP8 /// PRR5-ARHGAP8 (11727945_x_at) / RFU KRTAP5-7 /// NADSYN1 (11734609_at) / Fold change /veh KRTAP5-7 /// NADSYN1 (11734609_at) / RFU RASL12 (11751679_a_at) / Fold change /veh RASL12 (11751679_a_at) / RFU CDKN2B (11736163_a_at) / Fold change /veh CDKN2B (11736163_a_at) / RFU PRF1 (11729649_at) / Fold change /veh PRF1 (11729649_at) / RFU, ZNF638 /// ZNF638-IT1 / Fold change vs veh, ZNF638 /// ZNF638-IT1 / RFU, PANK3 / Fold change vs veh, PANK3 / RFU, SH3YL1 / Fold change vs veh, SH3YL1 / RFU, ZEB2 / Fold change vs veh, ZEB2 / RFU, NRIP1 / Fold change vs veh, NRIP1 / RFU, PTTG1IP / Fold change vs veh, PTTG1IP / RFU, CAPN2 / Fold change vs veh, CAPN2 / RFU, MED14 / Fold change vs veh, MED14 / RFU, SNORA58 / Fold change vs veh, SNORA58 / RFU, C1orf63 / Fold change vs veh, C1orf63 / RFU, LRRFIP1 / Fold change vs veh, LRRFIP1 / RFU, NDUFAF7 / Fold change vs veh, NDUFAF7 / RFU, SLC12A2 / Fold change vs veh, SLC12A2 / RFU, IBTK / Fold change vs veh, IBTK / RFU, ESF1 / Fold change vs veh, ESF1 / Fold change vs veh, TMEM50B / RFU, TAOK1 / Fold change vs veh, TAOK1 / RFU, ACBD3 / Fold change vs veh, ACBD3 / RFU, TMA16 / Fold change vs veh, TMA16 / RFU, RWDD3 / Fold change vs veh, RWDD3 / RFU, BCAT1 / Fold change vs veh, BCAT1 / RFU, EDEM3 / Fold change vs veh, EDEM3 / RFU, TMEM33 / Fold change vs veh, TMEM33 / RFU, WDR75 / Fold change vs veh, WDR75 / RFU, AHCTF1 / Fold change vs veh, AHCTF1 / RFU, TFRC / Fold change vs veh, TFRC / RFU, ZDHHC17 / Fold change vs veh, ZDHHC17 / RFU, NOM1 / Fold change vs veh, NOM1 / RFU, ARL8B / Fold change vs veh, ARL8B / RFU, ZBTB11 / Fold change vs veh, ZBTB11 / RFU, TAMM41 / Fold change vs veh, TAMM41 / RFU, KIAA1704 /// LOC100996395 / Fold change vs veh, KIAA1704 /// LOC100996395 / RFU, ING1 / Fold change vs veh, ING1 / RFU, TRMT61B / Fold change vs veh, TRMT61B / RFU, FUBP3 / Fold change vs veh, FUBP3 / RFU, TP53 / Fold change vs veh, TP53 / RFU, TNKS2 / Fold change vs veh, TNKS2 / RFU, ZFP14 / Fold change vs veh, ZFP14 / RFU, ACTR2 / Fold change vs veh, ACTR2 / RFU, PPP3R1 / Fold change vs veh, PPP3R1 / RFU, PIK3R1 / Fold change vs veh, PIK3R1 / RFU, HNRNPA1 / Fold change vs veh, HNRNPA1 / RFU, RNF170 / Fold change vs veh, RNF170 / RFU, ZNF28 / Fold change vs veh, ZNF28 / RFU, RNGTT / Fold change vs veh, RNGTT / RFU, OGT / Fold change vs veh, OGT / RFU, BRD1 / Fold change vs veh, BRD1 / RFU, MARS / Fold change vs veh, MARS / RFU, ZNF655 / Fold change vs veh, ZNF655 / RFU, FAHD1 / Fold change vs veh, FAHD1 / RFU, BDP1 / Fold change vs veh, BDP1 / RFU, LRRCC1 / Fold change vs veh, LRRCC1 / RFU, ARID1A / Fold change vs veh, ARID1A / RFU, ZNF146 / Fold change vs veh, ZNF146 / RFU, ZNF330 / Fold change vs veh, ZNF330 / RFU, GPN3 / Fold change vs veh, GPN3 / RFU, C9orf123 / Fold change vs veh, C9orf123 / RFU, N4BP2L2 / Fold change vs veh, N4BP2L2 / RFU, ARFIP1 / Fold change vs veh, ARFIP1 / RFU, FAM179B / Fold change vs veh, FAM179B / RFU, BCL10 / Fold change vs veh, BCL10 / RFU, UHRF1BP1L / Fold change vs veh, UHRF1BP1L / RFU, BET1 / Fold change vs veh, BET1 / RFU, CNOT2 / Fold change vs veh, CNOT2 / RFU, ZNF268 / Fold change vs veh, ZNF268 / Fold change vs veh, ZNF507 / RFU, DGCR2 / Fold change vs veh, DGCR2 / RFU, WDSUB1 / Fold change vs veh, WDSUB1 / Fold change vs veh, HSP90B1 /// MIR3652 / RFU, ADSS / Fold change vs veh, ADSS / RFU, GK / Fold change vs veh, GK / RFU, ZNF148 / Fold change vs veh, ZNF148 / RFU, TAF9 / Fold change vs veh, TAF9 / RFU, SLC1A5 / Fold change vs veh, SLC1A5 / RFU, SLMO2 / Fold change vs veh, SLMO2 / RFU, ABCC4 / Fold change vs veh, ABCC4 / RFU, LOC101060439 /// RAP1B / Fold change vs veh, LOC101060439 /// RAP1B / RFU, RFX7 / Fold change vs veh, RFX7 / RFU, GTPBP10 / Fold change vs veh, GTPBP10 / RFU, CNEP1R1 / Fold change vs veh, CNEP1R1 / RFU, BIVM-ERCC5 /// ERCC5 / Fold change vs veh, BIVM-ERCC5 /// ERCC5 / RFU, ILF3 / Fold change vs veh, ILF3 / RFU 11762660_at / Fold change /veh 11762660_at / RFU VCAN (11757783_s_at) / Fold change /veh VCAN (11757783_s_at) / RFU DDX43 (11728927_at) / Fold change /veh DDX43 (11728927_at) / RFU KRT8 (11758188_x_at) / Fold change /veh KRT8 (11758188_x_at) / RFU NKD1 (11759106_at) / Fold change /veh NKD1 (11759106_at) / RFU SRD5A1 (11742802_a_at) / Fold change /veh SRD5A1 (11742802_a_at) / RFU TPSAB1 /// TPSB2 (11721975_s_at) / Fold change /veh TPSAB1 /// TPSB2 (11721975_s_at) / RFU GSTM3 (11746129_a_at) / Fold change /veh GSTM3 (11746129_a_at) / RFU IL23R (11737362_x_at) / Fold change /veh IL23R (11737362_x_at) / RFU TMEM51 (11727254_a_at) / Fold change /veh TMEM51 (11727254_a_at) / RFU PIWIL2 (11732686_x_at) / Fold change /veh PIWIL2 (11732686_x_at) / RFU ORM1 (11744905_x_at) / Fold change /veh ORM1 (11744905_x_at) / RFU CCDC152 (11743942_at) / Fold change /veh CCDC152 (11743942_at) / RFU ECM1 (11717891_a_at) / Fold change /veh ECM1 (11717891_a_at) / RFU IL23R (11748794_a_at) / Fold change /veh IL23R (11748794_a_at) / RFU TNFAIP8L3 (11732012_x_at) / Fold change /veh TNFAIP8L3 (11732012_x_at) / RFU MBOAT4 (11741988_at) / Fold change /veh MBOAT4 (11741988_at) / RFU 11764193_at / Fold change /veh 11764193_at / RFU TMEM53 (11763286_at) / Fold change /veh TMEM53 (11763286_at) / RFU MAGEB2 (11727129_at) / Fold change /veh MAGEB2 (11727129_at) / RFU TMEM200A (11744735_a_at) / Fold change /veh TMEM200A (11744735_a_at) / RFU CCDC152 (11751479_a_at) / Fold change /veh CCDC152 (11751479_a_at) / RFU FAM211A (11726209_a_at) / Fold change /veh FAM211A (11726209_a_at) / RFU RGS16 (11746705_a_at) / Fold change /veh RGS16 (11746705_a_at) / RFU VCAN (11755009_s_at) / Fold change /veh VCAN (11755009_s_at) / RFU RHOB (11743442_s_at) / Fold change /veh RHOB (11743442_s_at) / RFU RGS16 (11720943_a_at) / Fold change /veh RGS16 (11720943_a_at) / RFU RGS16 (11720944_at) / Fold change /veh RGS16 (11720944_at) / RFU, VPS4B / Fold change vs veh, VPS4B / RFU, CREB1 / Fold change vs veh, CREB1 / RFU, DNAJC13 / Fold change vs veh, DNAJC13 / RFU, GNAQ / Fold change vs veh, GNAQ / RFU, CDK5R1 / Fold change vs veh, CDK5R1 / RFU, ZRANB3 / Fold change vs veh, ZRANB3 / RFU, CUL4A / Fold change vs veh, CUL4A / RFU, CCNY / Fold change vs veh, CCNY / RFU, UFL1 / Fold change vs veh, UFL1 / RFU, COG3 / Fold change vs veh, COG3 / RFU, DIAPH2 / Fold change vs veh, DIAPH2 / RFU, SKA2 / Fold change vs veh, SKA2 / RFU, AFF3 / Fold change vs veh, AFF3 / RFU, LMF1 / Fold change vs veh, LMF1 / RFU, IPO11 / Fold change vs veh, IPO11 / RFU, DFFB / Fold change vs veh, DFFB / RFU, FOXP1 / Fold change vs veh, FOXP1 / RFU, CARD8 / Fold change vs veh, CARD8 / RFU, STRN3 / Fold change vs veh, STRN3 / RFU, ADK / Fold change vs veh, ADK / RFU, RASSF2 / Fold change vs veh, RASSF2 / RFU, WIPF1 / Fold change vs veh, WIPF1 / RFU, LARP1B / Fold change vs veh, LARP1B / RFU, RASA1 / Fold change vs veh, RASA1 / RFU, RB1 / Fold change vs veh, RB1 / RFU, PPFIA1 / Fold change vs veh, PPFIA1 / RFU, MAT2A / Fold change vs veh, MAT2A / RFU, CCT5 / Fold change vs veh, CCT5 / RFU, WDR92 / Fold change vs veh, WDR92 / RFU, CUX1 / Fold change vs veh, CUX1 / RFU, TTC7A / Fold change vs veh, TTC7A / RFU, TMEM135 / Fold change vs veh, TMEM135 / RFU, DEPTOR / Fold change vs veh, DEPTOR / RFU, CPM / Fold change vs veh, CPM / RFU, DNAJB6 / Fold change vs veh, DNAJB6 / RFU, CACNA2D3 / Fold change vs veh, CACNA2D3 / RFU, DTX4 / Fold change vs veh, DTX4 / RFU, TFCP2 / Fold change vs veh, TFCP2 / RFU, GMCL1 /// GMCL1P1 / Fold change vs veh, GMCL1 /// GMCL1P1 / RFU, AEBP2 / Fold change vs veh, AEBP2 / RFU, SNHG1 /// SNORD22 /// SNORD25 /// SNORD26 /// SNORD27 /// SNORD28 /// SNORD29 /// SNORD31 / Fold change vs veh, SNHG1 /// SNORD22 /// SNORD25 /// SNORD26 /// SNORD27 /// SNORD28 /// SNORD29 /// SNORD31 / Fold change (Aza/veh), C12orf56 (ProbeSet 11735607_a_at) / Fold change (ACY-1035/veh), C12orf56 (ProbeSet 11735607_a_at) / Fold change (Aza/veh), FGFR1OP (ProbeSet 11751329_s_at) / Fold change (ACY-1035/veh), FGFR1OP (ProbeSet 11751329_s_at) / Fold change (Aza/veh), VPS36 (ProbeSet 11739960_a_at) / Fold change (ACY-1035/veh), VPS36 (ProbeSet 11739960_a_at) / RFU SYPL1 (11715823_x_at) / Fold change /veh SYPL1 (11715823_x_at) / RFU IGFBP7 (11715501_s_at) / Fold change /veh IGFBP7 (11715501_s_at) / RFU REEP3 (11722064_at) / Fold change /veh REEP3 (11722064_at) / RFU IGLL1 (11728026_x_at) / Fold change /veh IGLL1 (11728026_x_at): dose or concentration left out as unconfirmed
Conditions: ProbeSet 11731583_a_at; LIST D

**Q.** `Nc1ccc(-c2cccs2)cc1NC(=O)c1ccc2c(c1)cc(C1CC1)n2CCN1CCOCC1` [ACY-1035] was tested. Which “RFU, LARP1B” value did it give?
**A.** 84.89 RFU

Source: paper PMC5218480 (PLoS ONE, 2017)
